Reference: patent US12102631B2, “Quinolylnitrones for the treatment and prevention of a cerebral stroke or ischaemia” (ISQUAEMIA BIOTECH, S.L., priority 2018, dated 2024)

System: tMCAO in C57BL/6 mice
Assay: Grip strength test after transient middle cerebral artery occlusion (tMCAO)
Format: in vivo
Experimental: Animal model of focal cerebral ischemia. Transient occlusion of a distal branch of the middle cerebral artery (tMCAO) was induced in male C57BL/6 mice (9-12 week old, Charles River) as previously described.^57 The animals were housed in a light/dark cycle (12 hour), humidity and temperature (22±2° C.) controlled environment with food and water available ad libitum. Briefly, mice were anesthetized with 4% isoflurane for induction and 1.5-2% isoflurane for maintenance (in 79% N2/21% O2). After drilling a small hole on the temporal bone, the middle cerebral artery (MCA) was compressed for 60 min with a 30-G needle using a micromanipulator. During the surgery, body temperature was maintained between 37.0±0.5° C. using a homoeothermic blanket and CBF was monitored using laser-Doppler flowmetry to confirm MCA occlusion. Buprenorphine (0.05-0.1 mg/kg) was administered subcutaneously immediately before the procedure. A total of 28 mice were subjected to tMCAO according to the design of the study. We performed a power analysis to determine sample size (significance level set at 0.05, the power set at 0.8 (80%)) resulting in 8 animals per experimental group. Surgical inclusion criteria: a reduction in blood flow to <25% of baseline value during ischemia period, and a recovery of 75% of baseline value in the reperfusion period. […] Mice were randomly assigned using a randomization software to the following experimental groups (n=8 per group): vehicle (saline-EtOH 90:10 vol/vol), nitrone 23 (1.5 mg/kg) and nitrone 23 (2.0 mg/kg). The treatments were administered intraperitoneally at the onset of reperfusion period by a blinded investigator. […]
Motor-deficit evaluation, grip strength test. […] A total of 6 trials were conducted for each test and the strength value was calculated as the mean of them.
To assess the neuroprotective effect of QN 23 on experimental ischemic stroke, we induced a transient middle cerebral artery occlusion (tMCAO) and evaluated the motor deficits by grip strength test at 24 h and 48 h after the administration of QN 23. […]

COc1ccc2nc(Cl)c(/C=[N+](\[O-])C(C)(C)C)cc2c1 [Compound 23, (Z)—N-tert-Butyl-1-(2-chloro-6-methoxyquinolin-3-yl)methanimine oxide]
motor deficit compared with vehicle (in words) (1.5 mg/kg and 2.0 mg/kg, 48 h after treatment): significant decrease of motor deficit
grip strength compared with vehicle (in words) (2.0 mg/kg, 24 h after treatment): improvement in the grip strength which was significant
improvement of grip strength (48 h after treatment): 20.7%
